# Measurements: US20130224110A1, “USE OF ADENOSINE RECEPTOR SIGNALING TO MODULATE PERMEABILITY OF BLOOD-BRAIN BARRIER” (CORNELL UNIVERSITY, priority 2010, published 2013)
# Experiments:
# [1] = tested on: Z310 cells; experiment: Jurkat cell migration across Z310 choroid plexus cell transwell; format: cell-based, murine; settings: 24 hours, n=1
# Experimental: To test the hypothesis, Transwell membranes were seeded with Z310 cells and allowed to grow to confluencey. 2×10^6 Jurkat cells were added to the upper chamber with or with out NECA (n=1, general AR agonist), CCPA (n=1, A1 AR agonist), CGS 21860 (n=1, A2A AR agonist), or DMSO vehicle(n=1). After 24 hours, migrated cells in the lower chamber were counted. Values are relative to the number of cells that migrate through non-Z310 seeded transwells and the results are shown in FIG. 12.
# [2] = tested on: blood brain barrier; experiment: Evans Blue dye extravasation across the blood brain barrier; format: in vivo, mice; settings: single i.v. injection 100 μl 0.01 nM one hour before dye
# Experimental: The objective of this experiment was to determine if the blood brain barrier could be modulated by activation of adenosine receptors. NECA is a non-selective adenosine receptor agonist, with similar affinities for A1, A2A and A3 adenosine receptors and a low affinity for the A2b adenosine receptor. In order to determine if activation of adenosine receptors would induce extravasation of Evans Blue dye across the blood brain barrier (BBB), mice were treated with: NECA, a non-selective adenosine receptor agonist (n=5, 100 μl 0.01 nM); SCH58261, an A2A adenosine receptor specific antagonist (n=5, 1 mg/kg); pertussis toxin, an agent known to induce BBB leakiness and as such used as a positive control (n=7, 200 μl); and, PBS as a vehicle control (n=5, 100 μl). CD73^−/− mice, which lack the ability to produce extracellular adenosine, were also treated with NECA (n=4, 100 μl 0.01 nM). Treatments were administered as a single i.v. injection one hour prior to i.v. injection of 200 μl 1% Evans Blue dye ([…] total dye injected). Four hours after administration of Evans Blue, mice were anesthetized with a ketamine/xylazine mix and perfused via the left ventricle with ice cold PBS. […] Following extraction, the tissue/solvent mixture was centrifuged at 500×g for 30 minutes and 100 μl of supernatant was read on a BioTex spectrophotometer at 620 nm. Data is expressed as μg Evans Blue/ml DMF.
# [3] = tested on: Bend.3 cells; experiment: Transendothelial cell electrical resistance (TEER) assay; format: cell-based; settings: mouse BEC monolayers, 1 μM, vs vehicle or media alone
# Experimental: Bend.3 cells were grown in ATCC-formulated DMEM supplemented with 10% FBS on 24-well transwell inserts, 8 μm pore size (BD Falcon, Bedford, Mass.) until a monolayer was established. TEER was assessed using a Voltohmeter (EVOMX, World Precision Instruments, Sarasota, Fla.). Background resistance from un-seeded transwells was subtracted from recorded values to determine absolute TEER values. Change in absolute TEER from T0 for each individual transwell was expressed as percentage change and then averaged for each treatment group.
structure (smiles),measurement,setting,value
"CCNC(=O)[C@H]1O[C@@H](n2cnc3c(N)ncnc32)[C@H](O)[C@@H]1O [NECA, 5′-N-ethylcarboxamido adenosine]",lymphocyte (Jurkat) migration across the CP,[1],induced migration
same,Evans Blue dye migration vs. PBS control,[2]; CD73−/− mice,almost five fold increase
same,Evans Blue dye migration vs. control,[2]; WT mice,increase over control mice
same,TEER,[3],decreases in TEER
